Earlier results in US10898449B2, “Transdermal therapeutic system containing asenapine” (LTS LOHMANN Therapie-Systeme AG, priority 2016, dated 2021).

Legend:
[1] = sublingual administration, therapeutic doses
[2] = test system: patients; conditions: human, in vivo

terminal disposition half-life [1]: around 1 day | Somnolence and anxiety (very common), share of the patients [2]: ≥ 10%
SMILES: CN1C[C@H]2c3ccccc3Oc3ccc(Cl)cc3[C@@H]2C1 (relative stereo) [asenapine, (3aRS,12bRS)-rel-5-chloro-2,3,3a,12b-tetrahydro-2-methyl-1H-dibenz[2,3:6,7]oxepino[4,5-c]pyrrole]
